Results: publication PMC6876247 (Proceedings of the National Academy of Sciences of the …, 2019)

Target: T1, GPR43 (Mus musculus, UniProt Q8VCK6)
T1 sequence (Q8VCK6 1-330): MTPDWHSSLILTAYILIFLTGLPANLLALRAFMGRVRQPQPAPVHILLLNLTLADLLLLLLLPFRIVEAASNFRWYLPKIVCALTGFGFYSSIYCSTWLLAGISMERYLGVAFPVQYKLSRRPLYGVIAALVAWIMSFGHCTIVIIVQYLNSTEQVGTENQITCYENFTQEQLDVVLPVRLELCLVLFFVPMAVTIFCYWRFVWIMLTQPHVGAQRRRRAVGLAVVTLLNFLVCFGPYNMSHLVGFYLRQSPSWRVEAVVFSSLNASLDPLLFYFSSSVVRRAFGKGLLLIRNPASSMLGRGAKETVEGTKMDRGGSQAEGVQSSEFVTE
Assay type: cell-based

EC50: 760 µM
Structure (SMILES): CC(=O)CC(=O)O [acetoacetate]
